This is an account of results in publication PMC11121924, “Protopine and Allocryptopine Interactions with Plasma Proteins” (International Journal of Molecular Sciences, 2024).

The target in assay [1] is T1, human serum albumin (HSA) (Homo sapiens, UniProt P02768).
T1 construct: gene ALB
The experiment in a line: UV-Vis absorption titration (Benesi-Hildebrand); dPhe marker displacement by fluorescence. The assay is classed as binding.

Assay [2] deals with T2, α-1-acid glycoprotein (AAG, orosomucoid) (Homo sapiens, UniProt P02763).
T2 construct: gene ORM1
T2 sequence (P02763 19-201): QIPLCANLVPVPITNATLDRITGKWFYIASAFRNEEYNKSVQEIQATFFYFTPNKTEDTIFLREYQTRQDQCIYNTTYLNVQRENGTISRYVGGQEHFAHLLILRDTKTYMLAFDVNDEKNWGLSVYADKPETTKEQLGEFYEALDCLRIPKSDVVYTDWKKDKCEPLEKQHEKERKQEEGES
The experiment in a line: UV-Vis absorption titration (Benesi-Hildebrand); quinaldine red displacement by fluorescence. The assay is classed as binding.

Structures are written as SMILES.

T1 sequence (P02768 25-609): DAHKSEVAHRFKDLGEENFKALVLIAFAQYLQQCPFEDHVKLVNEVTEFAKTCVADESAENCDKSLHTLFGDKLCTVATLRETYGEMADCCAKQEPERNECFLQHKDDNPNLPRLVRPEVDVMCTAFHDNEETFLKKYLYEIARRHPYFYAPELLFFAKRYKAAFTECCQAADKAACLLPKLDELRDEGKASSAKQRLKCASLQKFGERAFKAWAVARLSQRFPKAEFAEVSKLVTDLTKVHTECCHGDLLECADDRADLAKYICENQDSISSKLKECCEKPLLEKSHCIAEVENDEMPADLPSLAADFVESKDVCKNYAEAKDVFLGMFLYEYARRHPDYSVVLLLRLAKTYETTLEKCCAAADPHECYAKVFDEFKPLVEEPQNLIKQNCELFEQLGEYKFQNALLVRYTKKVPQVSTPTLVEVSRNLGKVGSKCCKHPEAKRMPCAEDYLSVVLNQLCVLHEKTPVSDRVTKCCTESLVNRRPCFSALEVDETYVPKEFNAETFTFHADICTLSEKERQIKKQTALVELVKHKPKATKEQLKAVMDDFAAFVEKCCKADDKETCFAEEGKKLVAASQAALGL

Consider `COc1ccc2c(c1OC)CN(C)CCc1cc3c(cc1C(=O)C2)OCO3` [ACP, allocryptopine], for which the values for the Kd in assay [1] and in assay [2] (read-out: Kapp.10^4 [dm^3mol^-1] (converted)) were 19.9 µM and 44.6 µM, respectively.
In assay [1], `CN1CCc2cc3c(cc2C(=O)Cc2ccc4c(c2C1)OCO4)OCO3` [PP, protopine] showed a Kd of 46.9 µM. Moreover, in assay [2], the “Kapp.10^4 [dm^3mol^-1]” value is 1.34 ± 0.0.03.
